The results in this text go back to patent US8637550B2, “Heteroaryl diamide compounds useful as MMP-13 inhibitors” (Boehringer Ingelheim International GmbH, priority 2008, dated 2014).

“And” between values parts separate entries of the source, which are not always exact repeats. Equal entries are not always repeated.

For orientation: IC50 means the concentration that gives 50% inhibition. A low value points to greater potency in that assay.

This test deals with MMP-13 (Homo sapiens, UniProt P45452). The experiment in a line: EnzoLyte 520 Generic MMP Assay Kit, 5-FAM/QXL520 FRET peptide substrate. Format: biochemical. From the text: The EnzoLyte™ 520 Generic MMP Assay Kit (AnaSpec Inc.) can detect the activity of several MMPs including MMP-1, 2, 3, 7, 8, 9, 13, and 14. This kit uses a 5-FAM/QXL™520 fluorescence resonance energy transfer (FRET) peptide as an MMP substrate.

`CNC(=O)[C@@H](NC(=O)c1ccc(-c2ccc(OCc3ccnn3C)cn2)o1)C1CCCCC1` [N-[(1S)-1-cyclohexyl-2-(methylamino)-2-oxoethyl]-5-{5-[(1-methyl-1H-pyrazol-5-yl)methoxy]pyridin-2-yl}furan-2-carboxamide] showed an IC50 of 6 nM.

`CNC(=O)[C@@H](NC(=O)c1ccc(-c2cccc(CNC(=O)c3nccn3C)c2)o1)C1CCCCC1` [N-[3-(5-{[(1S)-1-cyclohexyl-2-(methylamino)-2-oxoethyl]carbamoyl}furan-2-yl)benzyl]-1-methyl-1H-imidazole-2-carboxamide] returned an IC50 of 313 nM. With `CNC(=O)[C@@H](NC(=O)c1ccc(-c2ccc(OCc3cc(C)nc(C)c3)cn2)o1)C1CCCCC1` [N-[(1S)-1-cyclohexyl-2-(methylamino)-2-oxoethyl]-5-{5-[(2,6-dimethylpyridin-4-yl)methoxy]pyridin-2-yl}furan-2-carboxamide], the IC50 worked out at 2 nM. Then `CNC(=O)[C@@H](NC(=O)c1ccc(-c2cccc(CNC(=O)c3occc3C)c2)o1)C1CCCCC1` [N-[3-(5-{[(1S)-1-cyclohexyl-2-(methylamino)-2-oxoethyl]carbamoyl}furan-2-yl)benzyl]-3-methylfuran-2-carboxamide], with 180 nM; and `CNC(=O)[C@@H](NC(=O)c1ccc(-c2ccc(OCc3ccncc3C)cn2)o1)C1CCCCC1` [N-[(1S)-1-cyclohexyl-2-(methylamino)-2-oxoethyl]-5-{5-[(3-methylpyridin-4-yl)methoxy]pyridin-2-yl}furan-2-carboxamide], with 3 nM. The value for `CNC(=O)[C@@H](NC(=O)c1ccc(-c2ccc(O[C@H](C)c3ccncc3)cn2)o1)C1CCCCC1` [N-[(1S)-1-cyclohexyl-2-(methylamino)-2-oxoethyl]-5-{5-[(1R)-1-(pyridin-4-yl)ethoxy]pyridin-2-yl}furan-2-carboxamide] was 3 nM. Turning to `CNC(=O)[C@@H](NC(=O)c1ccc(-c2ccc(O[C@H](C)c3ccccc3)cn2)o1)C1CCCCC1` [N-[(1S)-1-cyclohexyl-2-(methylamino)-2-oxoethyl]-5-{5-[(1R)-1-phenylethoxy]pyridin-2-yl}furan-2-carboxamide], the IC50 was 41 nM and 73 nM. The value for `CNC(=O)[C@@H](NC(=O)c1ccc(-c2ccc(NC(=O)c3cccc(C)n3)cc2)o1)C(C)C` [6-Methyl-N-[4-(5-{[(2S)-3-methyl-1-(methylamino)-1-oxobutan-2-yl]carbamoyl}furan-2-yl)phenyl]pyridine-2-carboxamide] was 14 nM. The value for `CNC(=O)[C@@H](NC(=O)c1ccc(-c2cccc(CNC(=O)C3CCCCN3)c2)o1)C(C)C` (stereo partly drawn) [N-[3-(5-{[(1S)-2-methyl-1-(methylcarbamoyl)propyl]carbamoyl}-2-furyl)benzyl]piperidine-2-carboxamide] was 270 nM. Then `CNC(=O)[C@@H](NC(=O)c1ccc(-c2ccc(Cl)cn2)o1)C1CCCCC1` [5-(5-Chloropyridin-2-yl)-N-[(1S)-1-cyclohexyl-2-(methylamino)-2-oxoethyl]furan-2-carboxamide], with 245 nM; and `CNC(=O)[C@@H](NC(=O)c1ccc(-c2cccc(CNC(=O)c3ccoc3C)c2)o1)C1CCCCC1` [N-[(1S)-1-cyclohexyl-2-(methylamino)-2-oxoethyl]-5-[3-({[(2-methylfuran-3-yl)carbonyl]amino}methyl)phenyl]furan-2-carboxamide], with 330 nM; and `CNC(=O)[C@@H](NC(=O)c1ccc(-c2ccc(NC(=O)c3cccc(C)n3)cn2)o1)C1CCCCC1` [N-[6-(5-{[(1S)-1-cyclohexyl-2-(methylamino)-2-oxoethyl]carbamoyl}furan-2-yl)pyridin-3-yl]-6-methylpyridine-2-carboxamide], with 7 nM. Compound `CNC(=O)[C@@H](NC(=O)c1ccc(-c2cccc(CNC(=O)C(C)C)c2)o1)C1CCCCC1` [N-[(1S)-1-cyclohexyl-2-(methylamino)-2-oxoethyl]-5-(3-{[(2-methylpropanoyl)amino]methyl}phenyl)furan-2-carboxamide] showed an IC50 of 157 nM. The value for `CNC(=O)[C@@H](NC(=O)c1ccc(-c2ccc(C#N)cn2)o1)C1CCCCC1` [5-(5-Cyanopyridin-2-yl)-N-[(1S)-1-cyclohexyl-2-(methylamino)-2-oxoethyl]furan-2-carboxamide] was 69 nM; that for `CNC(=O)[C@@H](NC(=O)c1ccc(-c2ccc(-c3ccc(C)cc3)cn2)o1)C(C)C` [5-[5-(4-Methyl-phenyl)-pyridin-2-yl]-furan-2-carboxylic acid ((S)-2-methyl-1-methylcarbamoyl-propyl)-amide] was 180 nM; that for `CNC(=O)[C@@H](NC(=O)c1ccc(-c2cccc(CNC(=O)c3ccnnc3)c2)o1)C(C)C` [N-[3-(5-{[(1S)-2-methyl-1-(methylcarbamoyl)propyl]carbamoyl}-2-furyl)benzyl]pyridazine-4-carboxamide] was 180 nM. Then `CNC(=O)[C@@H](NC(=O)c1ccc(-c2ccc(NS(C)(=O)=O)cc2)o1)C1CCCCC1` [N-[(1S)-1-cyclohexyl-2-(methylamino)-2-oxoethyl]-5-{4-[(methylsulfonyl)amino]phenyl}furan-2-carboxamide], with 455 nM; and `CNC(=O)[C@@H](NC(=O)c1ccc(-c2ccc([N+](=O)[O-])cn2)o1)C1CCCCC1` [N-[(1S)-1-cyclohexyl-2-(methylamino)-2-oxoethyl)-5-(5-nitropyridin-2-yl)furan-2-carboxamide], with 74 nM. The compound `CNC(=O)[C@@H](NC(=O)c1ccc(-c2ccc(OCc3ccn[nH]3)cn2)o1)C1CCCCC1` [N-[(1S)-1-cyclohexyl-2-(methylamino)-2-oxoethyl]-5-[5-(1H-pyrazol-5-ylmethoxy)pyridin-2-yl]furan-2-carboxamide] came in with an IC50 of 6 nM. The value for `CNC(=O)[C@@H](NC(=O)c1ccc(-c2ccc(Br)cc2)o1)C1CCCCC1` [5-(4-Bromophenyl)-N-[(1S)-1-cyclohexyl-2-(methylamino)-2-oxoethyl]furan-2-carboxamide] was 395 nM; that for `CNC(=O)[C@@H](NC(=O)c1ccc(-c2cccc(CNC(=O)c3cccc(Cl)n3)c2)o1)C(C)C` [6-Chloro-N-[3-(5-{[(1S)-2-methyl-1-(methylcarbamoyl)propyl]carbamoyl}-2-furyl)benzyl]pyridine-2-carboxamide] was 2 nM.

Take `N#Cc1ccc(-c2ccc(C(=O)N[C@H](C(=O)NCCO)C3CCCCC3)o2)cc1` [5-(4-cyanophenyl)-N-{(1S)-1-cyclohexyl-2-[(2-hydroxyethyl)amino]-2-oxoethyl}furan-2-carboxamide]: the IC50 amounted to 100 nM. The compound `CNC(=O)[C@@H](NC(=O)c1ccc(-c2cccc(CNC(=O)C3CNCCO3)c2)o1)C(C)C` (stereo partly drawn) [N-[3-(5-{[(1S)-2-methyl-1-(methylcarbamoyl)propyl]carbamoyl}-2-furyl)benzyl]morpholine-2-carboxamide] gave an IC50 of 370 nM. Then `CNC(=O)[C@@H](NC(=O)c1ccc(-c2cccc(CNC(=O)c3ccnc(C(F)(F)F)n3)c2)o1)C1CCCCC1` [N-[3-(5-{[(1S)-1-cyclohexyl-2-(methylamino)-2-oxoethyl]carbamoyl}furan-2-yl)benzyl]-2-(trifluoromethyl)pyrimidine-4-carboxamide], with 7 nM; and `CNC(=O)[C@@H](NC(=O)c1ccc(-c2cccc(CNC(=O)c3cccc(Br)n3)c2)o1)C1CC1` [6-Bromo-N-[3-(5-{[(1S)-1-cyclopropyl-2-(methylamino)-2-oxoethyl]carbamoyl}-2-furyl)benzyl]pyridine-2-carboxamide], with 27 nM; and `CNC(=O)[C@@H](NC(=O)c1ccc(-c2ccc(OCc3cccnc3)cn2)o1)C1CCCCC1` [N-[(1S)-1-cyclohexyl-2-(methylamino)-2-oxoethyl]-5-[5-(pyridin-3-ylmethoxy)pyridin-2-yl]furan-2-carboxamide], with 2 nM. Then `CNC(=O)[C@@H](NC(=O)c1ccc(-c2cccc(CNC(=O)c3ccnc(C(F)(F)F)n3)c2)o1)C1CCOCC1` [N-[3-(5-{[(1S)-2-(methylamino)-2-oxo-1-(tetrahydro-2H-pyran-4-yl)ethyl]carbamoyl}-2-furyl)benzyl]-2-(trifluoromethyl)pyrimidine-4-carboxamide], with 2 nM. Turning to `CNC(=O)[C@@H](NC(=O)c1ccc(-c2ccc(O[C@@H](C)c3ccccc3)cn2)o1)C1CCCCC1` [N-[(1S)-1-cyclohexyl-2-(methylamino)-2-oxoethyl]-5-{5-[(1S)-1-phenylethoxy]pyridin-2-yl}furan-2-carboxamide], the IC50 is 295 nM. Compound `CNC(=O)[C@@H](NC(=O)c1ccc(-c2cccc(CNC(=O)c3cc(C)n[nH]3)c2)o1)C1CCCCC1` [N-[3-(5-{[(1S)-1-cyclohexyl-2-(methylamino)-2-oxoethyl]carbamoyl}furan-2-yl)benzyl]-3-methyl-1H-pyrazole-5-carboxamide] showed an IC50 of 123 nM. Then `CNC(=O)[C@@H](NC(=O)c1ccc(-c2ccc(NC(=O)c3ccn(C)n3)cc2)o1)C1CCCCC1` [N-[4-(5-{[(1S)-1-cyclohexyl-2-(methylamino)-2-oxoethyl]carbamoyl}furan-2-yl)phenyl]-1-methyl-1H-pyrazole-3-carboxamide], with 31 nM; and `CNC(=O)[C@@H](NC(=O)c1ccc(-c2ccc(NC(=O)c3cccc(C)n3)cc2)o1)C1CC1` [N-[4-(5-{[(1S)-1-cyclopropyl-2-(methylamino)-2-oxoethyl]carbamoyl}furan-2-yl)phenyl]-6-methylpyridine-2-carboxamide], with 69 nM.

With `CNC(=O)[C@@H](NC(=O)c1ccc(-c2cccc(CNC(=O)C3CCCN(C)C3)c2)o1)C(C)C` (stereo partly drawn) [1-Methyl-N-[3-(5-{[(1S)-2-methyl-1-(methylcarbamoyl)propyl]carbamoyl}-2-furyl)benzyl]piperidine-3-carboxamide], the IC50 was 215 nM. In turn, `CNC(=O)[C@@H](NC(=O)c1ccc(-c2ccc(-c3ccnc(C)c3)cn2)o1)C(C)C` [5-(2′-Methyl-[3,4′]bipyridinyl-6-yl)-furan-2-carboxylic acid ((S)-2-methyl-1-methylcarbamoyl-propyl)-amide] had an IC50 of 110 nM.
